Measurements from the NIST ThermoML archive (doi:10.1016/j.jct.2004.04.004).
Numbers after ± are expanded uncertainties.

Experiment: xn = mol fraction of the nth substance listed
Settings: 101.3 kPa, Liquid

Cc1ccccc1C [1,2-dimethylbenzene] + C[S+](C)[O-]
mass density (293.15 K, x1 = 0.0858): 1070.35 ± 0.28 kg/m3 | mass density (293.15 K, x1 = 0.1359): 1054.5 ± 0.26 kg/m3 | mass density (293.15 K, x1 = 0.1957): 1036.82 ± 0.24 kg/m3 | mass density (293.15 K, x1 = 0.2589): 1019.38 ± 0.22 kg/m3 | mass density (293.15 K, x1 = 0.3283): 1001.63 ± 0.2 kg/m3 | mass density (293.15 K, x1 = 0.3947): 985.85 ± 0.21 kg/m3 | mass density (293.15 K, x1 = 0.4732): 968.58 ± 0.23 kg/m3 | mass density (293.15 K, x1 = 0.5482): 953.27 ± 0.24 kg/m3 | mass density (293.15 K, x1 = 0.6132): 940.87 ± 0.26 kg/m3 | mass density (293.15 K, x1 = 0.6648): 931.53 ± 0.27 kg/m3 | mass density (293.15 K, x1 = 0.7329): 919.84 ± 0.29 kg/m3 | mass density (293.15 K, x1 = 0.8012): 908.78 ± 0.3 kg/m3 | mass density (293.15 K, x1 = 0.8732): 897.78 ± 0.31 kg/m3 | mass density (293.15 K, x1 = 0.9198): 891.02 ± 0.32 kg/m3 | mass density (303.15 K, x1 = 0.0923): 1059.85 ± 0.27 kg/m3 | mass density (303.15 K, x1 = 0.153): 1040.84 ± 0.25 kg/m3 | mass density (303.15 K, x1 = 0.229): 1018.94 ± 0.22 kg/m3 | mass density (303.15 K, x1 = 0.3013): 999.82 ± 0.2 kg/m3 | mass density (303.15 K, x1 = 0.3539): 986.84 ± 0.21 kg/m3 | mass density (303.15 K, x1 = 0.439): 967.38 ± 0.23 kg/m3 | mass density (303.15 K, x1 = 0.4938): 955.72 ± 0.24 kg/m3 | mass density (303.15 K, x1 = 0.5539): 943.64 ± 0.26 kg/m3 | mass density (303.15 K, x1 = 0.615): 932.03 ± 0.27 kg/m3 | mass density (303.15 K, x1 = 0.6849): 919.56 ± 0.29 kg/m3 | mass density (303.15 K, x1 = 0.7537): 907.99 ± 0.3 kg/m3 | mass density (303.15 K, x1 = 0.8327): 895.54 ± 0.32 kg/m3 | mass density (303.15 K, x1 = 0.9123): 883.82 ± 0.33 kg/m3 | mass density (313.15 K, x1 = 0.0794): 1055.53 ± 0.26 kg/m3 | mass density (313.15 K, x1 = 0.1246): 1040.99 ± 0.25 kg/m3 | mass density (313.15 K, x1 = 0.1936): 1020.26 ± 0.22 kg/m3 | mass density (313.15 K, x1 = 0.2638): 1000.86 ± 0.2 kg/m3 | mass density (313.15 K, x1 = 0.3248): 985.24 ± 0.21 kg/m3 | mass density (313.15 K, x1 = 0.4058): 966.09 ± 0.23 kg/m3 | mass density (313.15 K, x1 = 0.5732): 931.27 ± 0.27 kg/m3 | mass density (313.15 K, x1 = 0.649): 917.29 ± 0.29 kg/m3 | mass density (313.15 K, x1 = 0.7044): 907.66 ± 0.3 kg/m3 | mass density (313.15 K, x1 = 0.7724): 896.49 ± 0.32 kg/m3 | mass density (313.15 K, x1 = 0.8355): 886.69 ± 0.33 kg/m3 | mass density (313.15 K, x1 = 0.8943): 878.03 ± 0.34 kg/m3 | mass density (313.15 K, x1 = 0.9234): 873.9 ± 0.35 kg/m3 | mass density (323.15 K, x1 = 0.0833): 1045.74 ± 0.25 kg/m3 | mass density (323.15 K, x1 = 0.1489): 1024.89 ± 0.23 kg/m3 | mass density (323.15 K, x1 = 0.1948): 1011.29 ± 0.21 kg/m3 | mass density (323.15 K, x1 = 0.2587): 993.57 ± 0.2 kg/m3 | mass density (323.15 K, x1 = 0.3278): 975.84 ± 0.22 kg/m3 | mass density (323.15 K, x1 = 0.4039): 957.84 ± 0.24 kg/m3 | mass density (323.15 K, x1 = 0.4632): 944.82 ± 0.25 kg/m3 | mass density (323.15 K, x1 = 0.5399): 929.1 ± 0.27 kg/m3 | mass density (323.15 K, x1 = 0.6012): 917.37 ± 0.29 kg/m3 | mass density (323.15 K, x1 = 0.664): 906.05 ± 0.3 kg/m3 | mass density (323.15 K, x1 = 0.7576): 890.35 ± 0.32 kg/m3 | mass density (323.15 K, x1 = 0.8148): 881.37 ± 0.34 kg/m3 | mass density (323.15 K, x1 = 0.8833): 871.21 ± 0.35 kg/m3 | mass density (323.15 K, x1 = 0.9347): 863.97 ± 0.36 kg/m3 | mass density (333.15 K, x1 = 0.0795): 1038.47 ± 0.24 kg/m3 | mass density (333.15 K, x1 = 0.1399): 1019.08 ± 0.22 kg/m3 | mass density (333.15 K, x1 = 0.2048): 999.81 ± 0.2 kg/m3 | mass density (333.15 K, x1 = 0.2598): 984.62 ± 0.21 kg/m3 | mass density (333.15 K, x1 = 0.3189): 969.38 ± 0.23 kg/m3 | mass density (333.15 K, x1 = 0.3832): 953.94 ± 0.24 kg/m3 | mass density (333.15 K, x1 = 0.4539): 938.16 ± 0.26 kg/m3 | mass density (333.15 K, x1 = 0.5138): 925.7 ± 0.28 kg/m3 | mass density (333.15 K, x1 = 0.5822): 912.36 ± 0.3 kg/m3 | mass density (333.15 K, x1 = 0.6427): 901.28 ± 0.31 kg/m3 | mass density (333.15 K, x1 = 0.7038): 890.71 ± 0.32 kg/m3 | mass density (333.15 K, x1 = 0.7638): 880.89 ± 0.34 kg/m3 | mass density (333.15 K, x1 = 0.8247): 871.45 ± 0.35 kg/m3 | mass density (333.15 K, x1 = 0.9138): 858.53 ± 0.37 kg/m3 | mass density (343.15 K, x1 = 0.0698): 1033.25 ± 0.24 kg/m3 | mass density (343.15 K, x1 = 0.1587): 1004.79 ± 0.2 kg/m3 | mass density (343.15 K, x1 = 0.2184): 987.38 ± 0.21 kg/m3 | mass density (343.15 K, x1 = 0.275): 972.02 ± 0.22 kg/m3 | mass density (343.15 K, x1 = 0.3576): 951.35 ± 0.25 kg/m3 | mass density (343.15 K, x1 = 0.4247): 935.94 ± 0.27 kg/m3 | mass density (343.15 K, x1 = 0.4933): 921.29 ± 0.28 kg/m3 | mass density (343.15 K, x1 = 0.5539): 909.2 ± 0.3 kg/m3 | mass density (343.15 K, x1 = 0.6349): 894.13 ± 0.32 kg/m3 | mass density (343.15 K, x1 = 0.7038): 882.21 ± 0.34 kg/m3 | mass density (343.15 K, x1 = 0.7971): 867.23 ± 0.36 kg/m3 | mass density (343.15 K, x1 = 0.8621): 857.5 ± 0.37 kg/m3 | mass density (343.15 K, x1 = 0.9324): 847.62 ± 0.38 kg/m3 | mass density (353.15 K, x1 = 0.0431): 1034 ± 0.24 kg/m3 | mass density (353.15 K, x1 = 0.1383): 1002.49 ± 0.2 kg/m3 | mass density (353.15 K, x1 = 0.2043): 982.8 ± 0.21 kg/m3 | mass density (353.15 K, x1 = 0.2748): 963.47 ± 0.23 kg/m3 | mass density (353.15 K, x1 = 0.3534): 943.75 ± 0.26 kg/m3 | mass density (353.15 K, x1 = 0.4148): 929.55 ± 0.27 kg/m3 | mass density (353.15 K, x1 = 0.4829): 914.87 ± 0.29 kg/m3 | mass density (353.15 K, x1 = 0.5457): 902.24 ± 0.31 kg/m3 | mass density (353.15 K, x1 = 0.6198): 888.33 ± 0.33 kg/m3 | mass density (353.15 K, x1 = 0.6831): 877.21 ± 0.34 kg/m3 | mass density (353.15 K, x1 = 0.7598): 864.61 ± 0.36 kg/m3 | mass density (353.15 K, x1 = 0.8244): 854.67 ± 0.38 kg/m3 | mass density (353.15 K, x1 = 0.8846): 845.91 ± 0.39 kg/m3 | mass density (353.15 K, x1 = 0.9423): 837.96 ± 0.4 kg/m3
